# Assay results taken from patent US20190119284A1, “ErbB Inhibitors and Uses Thereof” (The Regents of the University of California, priority 2016, published 2019).
# Tests used:
# [1] = molecular target: T1, EGFR gatekeeper to methionine mutant in NCI-H1975 cells (Homo sapiens, UniProt P00533, L858R/T790M); assay: EGFR signaling and proliferation in NCI-H1975 cells; assay type: cell-based
# T1 construct: mutation of the EGFR gatekeeper to methionine in NCI-H1975 cells; endogenous in cells; host or cells: NCI-H1975
# [2] = system: mutationally activated EGFR; assay: proliferation assays of EGFR cell lines (FIG. 7C); assay type: cell-based; conditions: in contrast to lapatinib
# [3] = molecular target: T2, 2YF-L755S/3wt + NRG Ba/F3 cells (Homo sapiens, UniProt P04626, L755S/Y1005F/Y1023F/Y1112F/Y1127F/Y1139F/Y1196F/Y1221F/Y1222F/Y1248F, cells depend on it); assay: Ba/F3 proliferation assay, 2YF-L755S/3wt + NRG; assay type: cell-based; conditions: Table 4; ± S.D., n = 2; read-out: IC50, 2YF-L755S/3wt + NRG
# T2 construct: reported HER2 oncogenic mutants in the HER2YF construct
# Method: For the 2YF/3wt cells, the parental cells were first transduced with HER3 according to the protocol above and were then spun down at 500×g for 5 min and re-suspended in media supplemented with 10 ng/mL IL-3 and 3 μg/mL puromycin (Invitrogen). Cells were maintained in these conditions for seven days, passaging as required. After seven days the cells were spun down, washed with fresh media, and then used for a subsequent round of transduction according to the protocol above with HER2YF virus. […] The cells were maintained in these conditions for seven days, passaging as required. After seven days the cells were spun down, washed with fresh media, and then suspended in media supplemented with 10 ng/mL of NRG. Cells were maintained in these conditions for seven days to select for a NRG dependent population of 2YF/3wt Ba/F3 cells that were then maintained as described above. The same protocol was used for the 2YF-L755S/3wt, 2YF-YVMA/3wt, and 2YF-VC/3wt cell lines using the indicated constructs.
# Proliferation Assays. […] The following day media was changed to fresh media that contained either DMSO or the indicated concentration of drug plus NRG (50 ng/mL final concentration) as indicated. […] For all normalized assays, proliferation was normalized to the DMSO control condition. […]
# [4] = molecular target: PI3K-ALPHA (Homo sapiens, UniProt P42336); assay: Nanosyn in vitro kinase profiling: PI3K-ALPHA; assay type: biochemical; conditions: compound at 1 μM
# Chain of PI3K-ALPHA (P42336 whole entry, species assumed): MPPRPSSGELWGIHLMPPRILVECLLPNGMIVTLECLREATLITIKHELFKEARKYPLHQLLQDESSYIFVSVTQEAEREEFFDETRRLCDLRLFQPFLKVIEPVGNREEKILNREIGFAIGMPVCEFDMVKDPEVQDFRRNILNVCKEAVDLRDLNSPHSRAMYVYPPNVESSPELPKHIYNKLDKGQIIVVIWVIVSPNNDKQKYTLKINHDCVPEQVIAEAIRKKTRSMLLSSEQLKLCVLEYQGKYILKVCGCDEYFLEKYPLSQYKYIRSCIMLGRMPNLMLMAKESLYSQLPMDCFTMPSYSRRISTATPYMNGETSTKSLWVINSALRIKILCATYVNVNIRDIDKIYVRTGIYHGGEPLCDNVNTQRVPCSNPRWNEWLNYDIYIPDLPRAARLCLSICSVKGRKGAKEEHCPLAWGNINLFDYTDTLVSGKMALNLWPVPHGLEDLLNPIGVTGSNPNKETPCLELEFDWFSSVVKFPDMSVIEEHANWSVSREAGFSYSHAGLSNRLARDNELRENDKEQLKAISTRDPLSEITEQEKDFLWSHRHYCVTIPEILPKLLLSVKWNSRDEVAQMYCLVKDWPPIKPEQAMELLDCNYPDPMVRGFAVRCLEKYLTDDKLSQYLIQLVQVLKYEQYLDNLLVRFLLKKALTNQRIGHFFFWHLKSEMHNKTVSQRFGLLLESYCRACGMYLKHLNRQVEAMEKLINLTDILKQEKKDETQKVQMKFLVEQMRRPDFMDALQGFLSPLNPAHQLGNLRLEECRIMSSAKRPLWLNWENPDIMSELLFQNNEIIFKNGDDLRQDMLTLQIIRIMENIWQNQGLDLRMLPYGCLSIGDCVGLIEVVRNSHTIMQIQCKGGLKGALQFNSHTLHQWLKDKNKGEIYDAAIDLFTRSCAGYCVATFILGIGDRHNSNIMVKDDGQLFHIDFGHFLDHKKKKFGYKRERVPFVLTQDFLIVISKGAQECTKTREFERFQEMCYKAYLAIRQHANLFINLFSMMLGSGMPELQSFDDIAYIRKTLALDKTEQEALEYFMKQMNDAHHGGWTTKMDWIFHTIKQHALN
# Chain of PI3K-ALPHA (P27986 whole entry partner, species assumed): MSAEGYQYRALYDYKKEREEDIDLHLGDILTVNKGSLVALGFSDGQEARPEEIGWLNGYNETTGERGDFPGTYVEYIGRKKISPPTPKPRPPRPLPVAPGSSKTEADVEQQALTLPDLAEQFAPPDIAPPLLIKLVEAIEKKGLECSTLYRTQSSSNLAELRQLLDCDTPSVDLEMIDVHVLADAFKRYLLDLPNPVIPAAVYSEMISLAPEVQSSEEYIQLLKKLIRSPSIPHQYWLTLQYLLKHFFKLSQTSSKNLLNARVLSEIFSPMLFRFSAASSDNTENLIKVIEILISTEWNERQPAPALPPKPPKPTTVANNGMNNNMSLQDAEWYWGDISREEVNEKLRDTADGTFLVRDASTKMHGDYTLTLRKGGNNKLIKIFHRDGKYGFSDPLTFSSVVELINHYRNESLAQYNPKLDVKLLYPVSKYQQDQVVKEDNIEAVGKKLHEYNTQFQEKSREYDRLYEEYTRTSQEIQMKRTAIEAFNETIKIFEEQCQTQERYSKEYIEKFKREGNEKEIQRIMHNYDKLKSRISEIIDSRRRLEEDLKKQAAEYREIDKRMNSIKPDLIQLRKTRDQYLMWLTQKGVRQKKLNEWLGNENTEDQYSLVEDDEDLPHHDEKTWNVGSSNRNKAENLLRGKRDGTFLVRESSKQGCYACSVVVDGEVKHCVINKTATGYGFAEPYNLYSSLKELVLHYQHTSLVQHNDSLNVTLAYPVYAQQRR
# T1 sequence (P00533 25-1210 T790M/L858R): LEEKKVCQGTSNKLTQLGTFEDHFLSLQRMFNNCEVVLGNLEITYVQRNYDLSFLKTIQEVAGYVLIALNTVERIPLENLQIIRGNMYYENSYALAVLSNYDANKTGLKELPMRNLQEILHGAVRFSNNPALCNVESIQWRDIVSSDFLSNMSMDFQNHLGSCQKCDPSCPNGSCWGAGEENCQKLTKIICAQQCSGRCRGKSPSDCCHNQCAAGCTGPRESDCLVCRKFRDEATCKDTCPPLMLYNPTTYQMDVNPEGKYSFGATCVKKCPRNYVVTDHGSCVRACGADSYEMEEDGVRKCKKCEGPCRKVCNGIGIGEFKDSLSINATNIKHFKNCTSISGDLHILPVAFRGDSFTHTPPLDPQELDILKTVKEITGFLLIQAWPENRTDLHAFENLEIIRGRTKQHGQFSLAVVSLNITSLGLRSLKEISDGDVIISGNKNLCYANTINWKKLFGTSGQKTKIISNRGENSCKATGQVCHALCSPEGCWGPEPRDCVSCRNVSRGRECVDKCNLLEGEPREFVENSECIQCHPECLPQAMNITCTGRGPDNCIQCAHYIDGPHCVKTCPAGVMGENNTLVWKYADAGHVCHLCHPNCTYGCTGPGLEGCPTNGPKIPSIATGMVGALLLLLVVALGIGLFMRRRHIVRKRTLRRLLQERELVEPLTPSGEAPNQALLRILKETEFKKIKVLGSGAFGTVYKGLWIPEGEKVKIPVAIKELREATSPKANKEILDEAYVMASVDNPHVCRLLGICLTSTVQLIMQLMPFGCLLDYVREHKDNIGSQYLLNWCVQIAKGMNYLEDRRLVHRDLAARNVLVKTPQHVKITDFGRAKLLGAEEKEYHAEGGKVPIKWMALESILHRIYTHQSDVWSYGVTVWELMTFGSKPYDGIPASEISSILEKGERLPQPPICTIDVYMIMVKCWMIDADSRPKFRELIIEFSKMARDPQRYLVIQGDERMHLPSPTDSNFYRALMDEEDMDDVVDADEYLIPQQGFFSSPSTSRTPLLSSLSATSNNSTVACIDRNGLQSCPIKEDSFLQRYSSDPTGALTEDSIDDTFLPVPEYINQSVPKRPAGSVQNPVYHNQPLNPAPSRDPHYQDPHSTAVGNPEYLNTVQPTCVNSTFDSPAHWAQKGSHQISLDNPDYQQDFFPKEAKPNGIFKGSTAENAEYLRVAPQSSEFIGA
# T2 sequence (P04626 whole entry L755S/Y1005F/Y1023F/Y1112F/Y1127F/Y1139F/Y1196F/Y1221F/Y1222F/Y1248F): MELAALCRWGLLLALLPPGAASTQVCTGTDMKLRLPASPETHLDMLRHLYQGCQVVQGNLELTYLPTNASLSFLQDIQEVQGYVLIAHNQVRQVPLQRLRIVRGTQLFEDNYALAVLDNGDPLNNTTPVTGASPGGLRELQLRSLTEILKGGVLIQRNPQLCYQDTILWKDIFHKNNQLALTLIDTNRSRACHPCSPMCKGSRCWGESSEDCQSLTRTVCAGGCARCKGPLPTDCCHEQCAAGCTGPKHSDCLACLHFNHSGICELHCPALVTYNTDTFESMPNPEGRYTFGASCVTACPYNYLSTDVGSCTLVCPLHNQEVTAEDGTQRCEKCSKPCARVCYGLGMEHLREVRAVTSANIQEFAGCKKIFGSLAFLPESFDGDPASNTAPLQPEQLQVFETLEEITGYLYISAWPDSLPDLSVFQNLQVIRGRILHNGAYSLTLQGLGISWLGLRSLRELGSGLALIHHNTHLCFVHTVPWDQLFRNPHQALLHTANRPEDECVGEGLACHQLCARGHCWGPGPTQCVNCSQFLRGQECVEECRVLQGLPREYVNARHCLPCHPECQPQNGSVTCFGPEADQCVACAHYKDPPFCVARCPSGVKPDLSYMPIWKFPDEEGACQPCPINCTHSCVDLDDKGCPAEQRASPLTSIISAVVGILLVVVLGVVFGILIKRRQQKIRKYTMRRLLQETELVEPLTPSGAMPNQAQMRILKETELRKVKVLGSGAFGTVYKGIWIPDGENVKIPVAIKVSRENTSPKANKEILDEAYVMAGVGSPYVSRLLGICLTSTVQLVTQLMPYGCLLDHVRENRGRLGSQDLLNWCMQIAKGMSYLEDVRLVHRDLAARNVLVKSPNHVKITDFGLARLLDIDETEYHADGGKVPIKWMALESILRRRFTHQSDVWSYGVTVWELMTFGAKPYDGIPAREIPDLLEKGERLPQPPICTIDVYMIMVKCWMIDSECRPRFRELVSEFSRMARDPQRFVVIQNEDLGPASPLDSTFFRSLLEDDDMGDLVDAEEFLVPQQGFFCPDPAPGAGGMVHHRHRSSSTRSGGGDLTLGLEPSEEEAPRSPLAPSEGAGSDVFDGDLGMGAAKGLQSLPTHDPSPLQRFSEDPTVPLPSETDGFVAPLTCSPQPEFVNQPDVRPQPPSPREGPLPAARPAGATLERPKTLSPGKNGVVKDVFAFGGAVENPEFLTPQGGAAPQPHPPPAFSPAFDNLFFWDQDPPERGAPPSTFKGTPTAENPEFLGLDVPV
structure (smiles),measurement,setting,value
"COc1ccc(-c2ccoc2)cc1Nc1ncnc2[nH]cc(-c3cc[nH]n3)c12 [compound 3, N-(5-(furan-3-yl)-2-methoxyphenyl)-5-(1H-pyrazol-3-yl)-7H-pyrrolo[2,3-d]pyrimidin-4-amine]",p-845 site inhibition at concentrations,[1]; EGFR gatekeeper methionine,less than 1 μM
same,effect of EGFR gatekeeper methionine mutation on inhibition,[1]; signaling and proliferation,caused a shift in the ability of compound 3 to inhibit both signaling and proliferation
same,preferential inhibition in proliferation assays,[2],preferential inhibition of the mutationally activated EGFR
same,GI50,[3],38.2 ± 2.9 nM
same,inhibition at 1 µM,[4],6%
